Patent publication US20220031690A1, “ANTI-NEURODEGENERATIVE DISEASE AGENT” (Hayashibara Co., Ltd., priority 2018, published 2022)

Experiments:
PC12-HS cells [1] = assay: Intracellular ROS production after hydrogen peroxide stimulation (CM-H2DCFDA); format: cell-based, rat; conditions: for intercellular ROS production (%): 50 μM hydrogen peroxide only = 100%; for inhibitory effect on intercellular ROS production (in words): 125 to 1,000 nM
Text: From the above-mentioned Experiment 1-1 and Experiment 1-2, it was shown that NK-5 (Chemical formula 2), NK-5 analogs (Chemical formula 3 and Chemical formula 5) and NK-6 (Chemical formula 7) have strong neurocyte growth acceleration activity and neurite-outgrowth promoting activity, and therefore, it was verified by the following experiment whether these compounds also act effectively on oxidative damage to neurocyte. That is, PC12-HS cells were oxidatively stimulated with hydrogen peroxide, and the intracellular ROS generated at that time was quantified using a fluorescent reagent, and the inhibitory effect of the dye compounds on intercellular ROS production, when an external oxidative stress was applied, was evaluated.
Similar to Experiment 1-1 and Experiment 1-2, precultured PC12-HS cells were cultured for 24 hours with test compounds diluted in culture medium at final concentrations of 125, 250, 500 and 1000 nM. Thereafter, the culture supernatant was removed, the cells were washed with Hank's buffer (60 μM CaCl2), 400 μM MgSO4, 500 μM MgCl2), and then 100 μl of ROS detection reagent CM-H2DCFDA (commercialized by FUJIFILM Wako Pure Chemical Corporation, Tokyo, Japan) adjusted to 5 μM with the same buffer, was added to each well. The PC12-HS cells were cultured at 37° C. for 30 minutes to allow the cells to take up CM-H2DCFDA, and then, the solution containing CM-H2DCFDA was removed. Then, the cells were washed with Hank's buffer, and then added 50 μM of hydrogen peroxide (commercialized by FUJIFILM Wako Pure Chemical Corporation, Tokyo, Japan) diluted with Hank's buffer in a volume 100 μl/well and stimulated at 37° C. for 2 hours. The solution containing hydrogen peroxide was removed, then an 200 μl of Hank's buffer was added to each well, and the cells were measured for fluorescent intensity at a wavelength of 492-527 nm, which is an index of intracellular ROS production, by a fluorescence microplate reader. In addition, after measuring the fluorescence intensity, the cells were fixed by adding 20 μl of glutaraldehyde to each well, and the amount of methylene blue dye uptake was measured as an absorbance at 650 nm, according to a conventional method, the result was used as an index of the number of living cells. The amount of ROS production per cell was indicated by the value that fluorescence intensity (492-527 nm) was divided by the absorbance at 650 nm in each well. The amount of ROS production per cell calculated from cells to which only hydrogen peroxide was added without containing the test compound as a negative control, was set as 100%, and the relative value when the test compound was added was determined, and is shown in Table 3, as the ROS production rate (%) per cell of each well. Measurements were performed for each concentration of each test compound in triplicate, and the mean values were described.

PC12-HS cells [2] = assay: Evaluation method B: neurite-outgrowth promoting activity in the presence of NGF; format: cell-based, rat; conditions: for Neurite-outgrowth rate (%) / Action on PC12-HS neurite-outgrowth promotion (500 ng/ml): NGF 10 ng/ml; for Action on PC12-HS neurite-outgrowth promotion (500 ng/ml): 3 days, class of neurite-outgrowth rate; for neurite-outgrowth promoting activity (in words): 200 and 1,000 nM, comment on Table 2
Text: As a model of the nerve cell, the NGF (nerve growth factor) highly sensitive strain of PC12 cell derived from the rat adrenal pheochromocytoma (hereinafter referred to as “PC12-HS cell”; JCRB cell bank, National Research and Development Institute of Health and Nutrition), which has been widely used as a suitable model for research on human neurodegenerative disease, was used. As the test compound, […] of trimethine cyanine dye compounds; NK-5 (Chemical formula 2), NK-36 (Chemical formula 3), NK-44 (Chemical formula 5) and dye compounds represented by Chemical formulae 12 to 18, and NK-6 (Chemical formula 7), which is a monomethine cyanine dye, were selected. In addition, two kinds of ethylene cross-linked dyes (Chemical formulae 19 and 20), 15 kinds of monomethine cyanine dyes (Chemical formulae 21 to 35), and seven kinds of trimethine cyanine dyes (Chemical formulae 36 to 42), which were expected to have a good neurocyte growth acceleration activity and/or neurite-outgrowth promoting activity in the screening disclosed in Patent literature 6, were also re-evaluated for comparison. The Chemical formulae 12 to 42 are shown below.
The cyanine dye compounds subjected to the test (purity 97% by mass or more, synthesized by Hayashibara Co., Ltd., Okayama, Japan) were individually dissolved in DMSO (product number “D8418”, commercialized by SIGMA Corporation) at a concentration of 5 mg/ml, and the solutions were then filtered through DMSO-resistant membrane (“Millex-LGS LLG025SS”, commercialized by Millipore Corporation) and stored at 25° C. in a dark condition. At the time of use, they were further diluted with Dulbecco's Medium (hereinafter, abbreviated as “D-MEM medium”, commercialized by Nissui Pharmaceutical Co., Ltd.) supplemented by 10% by volume of fetal bovine serum (FBS), and subjected to the test.
As in the case of evaluation of neurocyte growth accelerating activity (Evaluation method A), 50 μl/well of each test compound solution, prepared by diluting with the culture medium to give a final concentration of 500 ng/ml, and the culture medium containing 20 ng/ml of mouse NGF (mouse derived, final concentration 10 ng/ml, commercialized by Chemicon International, Inc., CA, USA) (50 μl/well) were added to the precultured PC12-HS cells in each well, and then cultured for three days. Culture medium was removed on day 3 of culture, and cells were fixed by adding 100 μl/well of 10% by volume of glutaraldehyde and standing for 20 minutes at room temperature. As a negative control, PC12-HS cells, cultured for three days with culture medium, were fixed with glutaraldehyde similarly as above. Fixed cells were observed under a microscope to assess the neurite-outgrowth. The neurite-outgrowth rate (%) was determined by observing the cells using a microscope by adjusting the magnitude to give about 100 cells in one visual field, counting the number of cells having neurites twice or more in length of the cell body (major axis), dividing by the total number of cells in the same visual field, and multiplying by 100. Measurements were carried out at three points for each test compound. […] In this experiment, the neurite-outgrowth rate was 5% or less when NGF was added (final concentration 10 ng/ml) without the addition of the test compound.
The method was based on Experiment 1-1, except the concentrations of the test compounds were set to three doses of 40 nM, 200 nM and 1,000 nM for evaluation method A (neurocyte growth accelerating effect), and two doses of 200 nM and 1,000 nM for evaluation method B (neurite outgrowth promoting effect). Measurements were performed in triplicate for each concentration of each test compound in both evaluation methods A and B. The result of the evaluation method A was expressed as a cell proliferation rate (%) by determined a relative percentage (%) when the value of the negative control to which the test compound was not added, was regarded as 100%. […]

SMILES	intercellular ROS production (%) (PC12-HS cells [1]; 125 nM)	intercellular ROS production (%) (PC12-HS cells [1]; 250 nM)	intercellular ROS production (%) (PC12-HS cells [1]; 500 nM)	intercellular ROS production (%) (PC12-HS cells [1]; 1,000 nM)	inhibitory effect on intercellular ROS production (in words) (PC12-HS cells [1])	Neurite-outgrowth rate (%) (PC12-HS cells [2]; 1.000 nM)	Neurite-outgrowth rate (%) (PC12-HS cells [2]; 200 nM)	Action on PC12-HS neurite-outgrowth promotion (500 ng/ml) (PC12-HS cells [2])	neurite-outgrowth promoting activity (in words) (PC12-HS cells [2])
CCN1C=CC(=Cc2cc[n+](CC)c3ccccc23)c2ccccc21.[I-] [NK-6]	108.6	81.2	69.8	66.2	suppressed the intercellular ROS production induced by hydrogen peroxide stimulation, in a concentration-dependent manner	41.5	32.6	⊚ (45% or more was judged to be more potent than NK-4 (“double circle”))	stronger neurite-outgrowth promoting activity than NK-4
CCN1C=CC(=CC=Cc2cc[n+](CC)c3ccccc23)c2ccccc21.[Br-] [NK-36]	88	43.5	51	8.3	suppressed the intercellular ROS production induced by hydrogen peroxide stimulation, in a concentration-dependent manner	28.7	33.8	◯ (When the mean neurite-outgrowth rate was 25 to 44%, it was judged to be equivalent to the positive control NK-4 (“circle”))	almost equivalent neurite-outgrowth promoting rate to NK-4
CCCCN1C=CC(=CC=Cc2cc[n+](CCCC)c3ccccc23)c2ccccc21.[I-] [NK-44]	75.4	65.11	34.1	27.1	suppressed the intercellular ROS production induced by hydrogen peroxide stimulation, in a concentration-dependent manner	22.9	29.3	◯ (When the mean neurite-outgrowth rate was 25 to 44%, it was judged to be equivalent to the positive control NK-4 (“circle”))	almost equivalent neurite-outgrowth promoting rate to NK-4
